According to publication PMC9369610, “Pro-Apoptotic and Pro-Autophagic Properties of Cardenolides from Aerial Parts of Pergularia tomentosa” (Molecules, 2022):

Key:
[1] = test system: Caco-2 cells; assay: MTT cell viability assay, IC50 in Caco-2 cells; format: cell-based; details: Homo sapiens, 24 h, SE less than 10% of value
Description: (§1) The human liver hepatocellular carcinoma cell line, HepG2, and the human adenocarcinoma of colon cell line, Caco-2, were cultured in Eagle’s Minimum Essential medium supplemented with 1% (v/v) non-essential amino acids, 0.2 mM L-glutamine, 50 units/mL penicillin, 50 μg/mL streptomycin and 10% (v/v) or 20% (v/v) fetal bovine serum (Sigma Aldrich, Milan, Italy) for HepG2 or Caco-2, respectively. The human embryonal lung fibroblast cell line, MRC5, was cultured in Dulbecco’s Modified Eagle medium (Sigma Aldrich, Milan, Italy) supplemented with 10% (v/v) fetal bovine serum, 0.2 mM L-glutamine, 50 units/mL penicillin and 50 μg/mL streptomycin. HUVEC cells were cultured in endothelial growth medium-2, supplemented with fetal bovine serum (2%), VEGF (0.1%), rH FGF-B (0.4%), rH EGF (0.1%), GA-1000 (0.1%), hydrocortisone (0.04%), R3-IGF-1 (0.1%), heparin (0.1%) and ascorbic acid (0.1%). Cells were maintained at 37 °C in a 5% CO2, 95% air-humidified atmosphere and passaged twice a week. Cell lines were obtained from Interlab Cell Line Collection, Istituto Nazionale per la Ricerca sul Cancro, Genoa, Italy. HUVEC were obtained from Lonza (Milan, Italy).
(§2) An MTT assay was used to analyse cell viability. Cells were seeded in 96 wells at the density of 2 × 10^4/cm^2 and, after 24 h, they were treated with P. tomentosa compounds or with the vehicle (DMSO). After a further 24 h of treatment, 0.5 mg/mL of MTT was added to the cell medium and incubated for 1.5 h at 37 °C. The resulting formazan crystals were dissolved in 100 μL of DMSO and absorbances were measured at 595 nm and 655 nm. The background signals at 655 nm were subtracted from 595 nm signals, and data were expressed as a percent of cell viability. The concentration of each compound that is required for 50% inhibition in vitro (IC50) was calculated as described in Husseini et al.. IC50 values were obtained for Caco-2, HepG2 and MRC5 cells by performing MTT assays with concentrations ranging from 0.01 μg/mL to 5 μg/mL.

[2] = test system: MRC5 cells; assay: MTT cell viability assay, IC50 in MRC5 cells; format: cell-based; details: Homo sapiens, 24 h, SE less than 10% of value
Description: as §1, §2

[3] = test system: HepG2, Caco-2, MRC5 and HUVEC cells; assay: MTT assay, comparison of cytotoxic effects at 1 μM on four cell types; format: cell-based, human; details: 24 h, Caco-2, HepG2, MRC5, HUVEC
From the text: We focused attention on 12β,6′-dihydroxycalotropin (1), 16α-hydroxycalotropin (2), 12β-hydroxycalactin (3), calotropin (4), and calactin (5), among those described by Hosseini et al., and tested their cytotoxic activity by a 3-(4,5-dime-thylthiazol-2-yl)-2,5-diphenylte-tetrazolium bromide (MTT) assay on two cancer cell lines (HepG2 and Caco-2), not previously employed, on an immortalised nontumoral cell line (MRC5) and normal primary cells (HUVEC).
Figure 2 Comparison of cytotoxic effects of P. tomentosa compounds on cancer cell lines (Caco-2 and HepG2), on an immortalised cell line (MRC5) and normal cells (HUVEC). Cells were treated for 24 h with 1 μM of each compound. Residual viability was measured by the MTT assay. Values are the means ± standard error (SE) of three independent experiments performed in triplicate. Statistical analysis was performed using the Student’s t-test. * p < 0.05 and ** p < 0.01 vs. cells treated with the vehicle (DMSO).
as §1, §2

[4] = test system: p53 in HepG2 cells; assay: Western blot analysis of p53 expression; format: cell-based, human; details: HepG2, 1 μM, 24 h
Description: (§3) To analyse the protein levels of p53, caspase-3, GRP78, LC3 and p62, HepG2 cells were treated with P. tomentosa compounds (1 or 2 μM) or with DMSO for the indicated times; then, Western blot analyses were performed. Briefly, cells were lysed in RIPA buffer (20 mM Tris-HCl, pH 7.5, 150 mM NaCl, 1 mM EDTA, 1 mM dithiothreitol, 0.1% sodium dodecyl sulphate, 1% triton X-100, 1 mM orthovanadate, and a cocktail of inhibitors (Sigma-Aldrich, Milan, Italy)). After separation on a sodium dodecyl sulphate-polyacrylamide gel electrophoresis and transfer to a poly-vinylidene fluoride membrane (Euroclone, Milan, Italy), the following primary antibodies were used, at a dilution of 1:1000 in tris-buffered saline containing 1% non-fat dry milk, overnight at 4 °C: mouse anti-p53 antibody, mouse anti-MAP LC3 β antibody, mouse anti-p62 antibody (DBA, Milan, Italy), mouse anti-GRP78 antibody, and mouse anti-caspase 3 antibody (Thermo Fisher Scientific, Milan, Italy). For normalisation, a mouse anti-GAPDH antibody (Microtech, Naples, Italy) was used.

[5] = test system: HepG2 cells; assay: Scratch-wound-healing assay; format: cell-based, human; details: HepG2, 1 μM, 24, 48 and 72 h
Description: Cells were seeded at a density of 5 × 10^4 cells/well in 24-well plates and allowed to grow for 72 h, reaching confluence. Mitomycin C (10 μg/mL) was added to inhibit proliferation, and then a sterile 2–10 μL pipette tip was used to perform a vertical scratch in the monolayer of each well. Detached cells were removed by washing with phosphate-buffered saline. Then, 300 μL of fresh medium containing P. tomentosa compounds (1 μM) or vehicle was added to each well and incubated for 72 h. Images of migrating cells were taken at 0, 24, 48 and 72 h, by using an Olympus CKX41 fluorescent microscope (Olympus Italia srl, Segrate, Italy) and elaborated by the ImageJ software. For each scratch, wound width was calculated as the average distance between the edges in four different sites. Then, reductions in wound wights at 24, 48 and 72 h were expressed as % of the width at time zero.

[6] = test system: HepG2 cells; assay: Transwell migration assay; format: cell-based, human; details: HepG2, 1 μM, 18 h
Description: Transwell filters (coated with collagen) in serum-free media containing 0.1% of BSA, with a PET membrane with 8 μm pores (BD Biosciences, Milan, Italy), were rehydrated for 2 h at 37 °C. HepG2 were seeded in the upper chambers at a density of 75 × 10^3 cells in MEM with 0.1% BSA and treated with or without 1 µM of Pergularia compounds. MEM−0.1%BSA, supplemented with 10% FBS, was added to the lower chamber as chemoattractant. Control wells without 10% FBS were included to assess random migration. After incubation at 37 °C in 5% CO2 for 18 h, the migrated cells were fixed with 4% paraformaldehyde for 5 min, permeabilised with methanol for 20 min and stained with crystal violet 0.5% for 15 min at room temperature. The cells on the lower side of the filter were allowed to dry before counting. Eight separate bright-field images were randomly acquired of each filter using an Olympus CKX41 Image Analyzer. The cells in each image were counted and analysed compared to control-transfected cells.

[7] = test system: caspase-3 in HepG2 cells; assay: Western blot of cleaved caspase-3; format: cell-based, human; details: HepG2, 2 μM, 7 h, Western blot densitometry
Description: as §3

[8] = test system: LC3 in HepG2 cells; assay: Western blot of LC3 (LC3-I and LC3-II); format: cell-based, human; details: HepG2, 1 μM, 24 h
Description: as §3

C[C@@H]1C[C@@H](O)[C@]2(O)O[C@@H]3C[C@@]4(C=O)[C@@H](CC[C@@H]5[C@@H]4CC[C@]4(C)[C@@H](C6=CC(=O)OC6)CC[C@]54O)C[C@H]3O[C@@H]2O1 [Compound 5, calactin]
IC50 [1]: 650 nM | IC50 [2]: 990 nM | relative cytotoxicity (residual viability, MTT) [3]: most cytotoxic | p53 protein level [4]: clearly decreased the p53 amount | effect on wound closure [5]: interfered with the wound closure after 48 and 72 h | effect on transwell migration [6]: most potent | cleaved caspase-3 (caspase-3 activation) [7]: most active | LC3-I level [8]: reduction in the LC3-I form | LC3-II level [8]: more marked
